Assay results as given in PubChem BioAssay (NCI).
“And” between values parts separate entries of the source, which are not always exact repeats. Identical values can stand only once.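 Step 1: Grow cells in 96-well plates. Step 2: Expose to compound for 48 hours at 5 concentrations. Step 3: Interpolate endpoints linearly; if unreached, use highest concentration. At the GI50, growth is halved. The concentration for full growth arrest is given as TGI.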

Key:
Test in all cases: growth of human tumour cells (NCI), 48 h
[1] = test system: CCRF-CEM leukemia
[2] = test system: DLD-1 colon
[3] = test system: DMS 273 small cell lung
[4] = test system: EKVX NSCLC
[5] = test system: HOP-18 NSCLC
[6] = test system: IGROV1 ovarian
[7] = test system: K-562 leukemia
[8] = test system: MALME-3M melanoma
[9] = test system: NCI-H226 lung
[10] = test system: SK-MEL-2 melanoma
[11] = test system: SNB-75 CNS

SMILES | TGI [1] | TGI [2] | TGI [3] | TGI [4] | TGI [5] | TGI [6] | TGI [7] | TGI [8] | TGI [9] | TGI [10] | TGI [11] | GI50 [1] | GI50 [9] | GI50 [11]
CSc1cnc2ccccc2c1Sc1c[nH]c2ccccc2c1=O | > 87.3 µM | > 80.7 µM | > 45.5 µM | > 45.8 µM | 67.8 µM | 43.1 µM | > 58.1 µM | 37.6 µM | 33 µM | 34.6 µM | 10.3 µM | – | – | –
CCOC(=O)C1=C(O)c2ccc(C)cc2C(=O)C1=O | > 100 µM | > 100 µM | > 100 µM | > 100 µM | > 100 µM | > 100 µM | > 100 µM | > 100 µM | > 100 µM | > 100 µM | > 100 µM | – | – | –
O=C1C2C=CC(n3[nH]c(=O)n(Cc4ccccc4)c3=O)CC2C(=O)N1c1ccc(Br)cc1 (centres undefined) | > 100 µM | > 100 µM | > 100 µM | > 100 µM | > 100 µM | > 100 µM | > 100 µM | > 100 µM | > 100 µM | > 100 µM | > 100 µM | – | – | –
C=C1C(C)C2C(Cc3ccccc3)NC(=O)C23OC(=O)/C=C\CC(=O)CCC(C)C/C=C/C3C1O (centres undefined) | – | 3.36 µM | 14.1 µM | 10.1 µM | 1.94 µM | 10.6 µM | 5.79 µM | 5.18 µM | 10.3 µM | 8.35 µM | 2.64 µM | 0.135 µM and 0.216 µM | 0.635 µM | 0.594 µM
Cc1c2ccncc2c(C)c2c1[nH]c1ccc(OCCN(C)C)cc12 | 1.3 µM | 0.718 µM | 0.321 µM | 1.51 µM | 2.76 µM | 1.42 µM | 5.21 µM | 2.96 µM | 0.976 µM | 1.87 µM | 1.31 µM | – | – | –
CN(C)CC1CCC(CN(C)C)C(=O)C1=O (centres undefined) | 4.51 µM | 7.25 µM | 31.2 µM | 47.2 µM | 3.07 µM | 33.2 µM | 6.15 µM | 3.6 µM | 10.8 µM | 34.6 µM | 30.6 µM | – | – | –
N/C(=N\N=C\c1ncccc1O)NO | > 47.6 µM | > 100 µM | > 59.4 µM | > 100 µM | > 100 µM | > 100 µM | > 60.7 µM | > 100 µM | 58.1 µM | > 100 µM | > 62.6 µM | – | – | –
